Assay results reported in US20160031796A1, “ANTIMUSCARINIC COMPOUND HAVING A LOW CONTENT OF IMPURITIES” (Dipharma Francis S.r.l., priority 2014, published 2016).
Counter-ions that a name gives are not always drawn.

What was measured:
[1] = stability studies of Fesoterodine fumarate samples under various temperature and humidity conditions, HPLC analysis; format: physicochemical
Description: Various samples of Fesoterodine fumarate salt of formula (I) have been taken from a batch of product, obtained using the process of the present invention, having a HPLC purity exceeding 99.8% and a content of the impurities of formulas (II), (III), (IV), (V), (VI) or (VII) of less than 0.10%, calculated as HPLC Area %, and completely free of impurities of formula (VIII) and (IX). Some of the samples taken were also micronized to reduce the particle size, both the samples directly taken from the sample batch and the micronized samples have been subjected to stability studies under various temperature and humidity conditions for up to 90 days.
An example of the conditions used in the stability studies were 40° C. with 75% relative humidity and 25° C. with 60% relative humidity.

[2] = Fesoterodine fumarate obtained as disclosed in EP 2 251 318 (prior art); cited from earlier work

CC(C)C(=O)Oc1ccc(CO)cc1[C@H](CCN(C(C)C)C(C)C)c1ccccc1 [Fesoterodine fumarate, (R)-2-(3-diisopropylamino-1-phenylpropyl)-4-(hydroxymethyl)phenol isobutyrate]
formation of impurities of formula (VIII) and/or (IX) ([1]; HPLC analysis, any of the conditions used, up to 90 days, e.g. 40° C./75% RH and 25° C./60% RH): has not shown the formation | increase in the content of impurities of formula (VI), (VII), (VIII) or (IX) over time ([1]; after 90 days under various temperature and humidity conditions): did not show any increase | stability of micronized sample on storage ([1]; micronized, maintained for 3 months at 4° C.): completely unaltered | impurities content of formula (VI) and/or (VII) ([1]; stability studies up to 90 days, e.g. 40° C. with 75% relative humidity and 25° C. with 60% relative humidity, batch samples and micronized samples): less than 0.10 % (HPLC Area %) | impurity of formula (VI) generated over time [2]: > 1%
